{
  "source": "patent US9718790B2",
  "about": "“Triazine derivative and pharmaceutical composition having an analgesic activity comprising the same” (SHIONOGI & CO., LTD., priority 2010, dated 2017)",
  "data": [
    {"target": "human P2X3 receptor (Homo sapiens (Human), UniProt P56373)", "sequence (P56373 whole entry)": "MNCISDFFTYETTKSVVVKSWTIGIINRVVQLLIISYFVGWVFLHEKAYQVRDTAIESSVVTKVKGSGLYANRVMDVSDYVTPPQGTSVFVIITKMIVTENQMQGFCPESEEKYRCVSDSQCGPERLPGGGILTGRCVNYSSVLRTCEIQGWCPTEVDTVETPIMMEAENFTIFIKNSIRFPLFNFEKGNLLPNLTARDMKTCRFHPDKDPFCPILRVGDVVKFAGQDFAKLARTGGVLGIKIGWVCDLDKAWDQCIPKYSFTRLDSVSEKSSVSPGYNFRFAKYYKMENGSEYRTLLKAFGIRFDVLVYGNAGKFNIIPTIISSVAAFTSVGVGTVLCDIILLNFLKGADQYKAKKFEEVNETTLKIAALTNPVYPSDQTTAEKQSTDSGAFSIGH", "assay": "Evaluation of human P2X3 receptor inhibitory activity (Fluo-3 calcium fluorescence, FDSS 3000, ATP stimulation);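 also: stimulus was 50 nM ATP with fluorescence followed for 3 min, and the response per well was peak post-ATP fluorescence divided by the reading at measurement start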", "assay_type": "cell-based", "settings": "C6BU-1 cells stably expressing human P2X3 receptor", "units": {"IC50": "nM"}, "values": [
      {"smiles": "CCn1c(=O)[nH]/c(=N\\c2ccc3oc(C)c(CC(=O)O)c3c2)n(Cc2ccc(Cl)cc2)c1=O", "note": "[Compound I-2170]", "IC50": 819},
      {"smiles": "Cc1ccc(Cn2c(=O)n(C)c(=O)[nH]/c2=N\\c2ccc(Oc3ccc(C(=O)O)cc3)cc2)cc1", "note": "[Compound I-2061]", "IC50": 148},
      {"smiles": "Cc1ccc(Cn2c(=O)n(C[C@H](C)C(=O)O)c(=O)[nH]/c2=N\\c2ccc(CCC3CC3)cc2)cc1", "note": "[Compound I-1214]", "IC50": 70},
      {"smiles": "COC(=O)[C@@H](C)Cn1c(=O)[nH]/c(=N\\c2cnc(OC3CCC3)c(Cl)c2)n(Cc2ccc(C)cc2)c1=O", "note": "[Compound I-1398]", "IC50": 25},
      {"smiles": "C[C@@H](C(=O)O)[C@H](C)n1c(=O)[nH]/c(=N\\c2ccc(OC3CCC3)cc2)n(Cc2ccc(Cl)cc2)c1=O", "note": "[Compound I-1391]", "IC50": 16},
      {"smiles": "COC(=O)[C@@H](C)Cn1c(=O)[nH]/c(=N\\c2ccc(N3CCCCCC3)cc2)n(Cc2ccc(Cl)cc2)c1=O", "note": "[Compound I-1233]", "IC50": 325},
      {"smiles": "COC(=O)[C@@H](C)[C@@H](C)n1c(=O)[nH]/c(=N\\c2ccc(OC3CCC3)cc2)n(Cc2ccc(C)cc2)c1=O", "note": "[Compound I-1453]", "IC50": 13},
      {"smiles": "CCOC(=O)c1coc(Oc2ccc(/N=c3\\[nH]c(=O)n(CC)c(=O)n3Cc3ccc(Cl)cc3)cc2)n1", "note": "[Compound I-2188]", "IC50": 9},
      {"smiles": "Cc1ccc(Cn2c(=O)n(CCC(=O)O)c(=O)[nH]/c2=N\\c2ccc(CC(C)C)c(F)c2)cc1", "note": "[Compound I-1299]", "IC50": 51},
      {"smiles": "Cc1cc(/N=c2\\[nH]c(=O)n(C[C@H](C)C(=O)O)c(=O)n2Cc2ccccc2)ccc1OC(C)C", "note": "[Compound I-0795]", "IC50": 724},
      {"smiles": "CC(C)Oc1ccc(/N=c2\\[nH]c(=O)n(C[C@@H]3COC(C)(C)O3)c(=O)n2Cc2ccc(Cl)cc2)cc1Cl", "note": "[Compound I-0614]", "IC50": 10},
      {"smiles": "CCn1c(=O)[nH]/c(=N\\c2ccc(Oc3cc(C(N)=O)ccn3)cc2)n(Cc2ccc(Cl)cc2)c1=O", "note": "[Compound I-2165]", "IC50": 979},
      {"smiles": "CCOC(=O)C1(Cn2c(=O)[nH]/c(=N\\c3ccc(CC(C)C)c(Cl)c3)n(Cc3ccc(C)cc3)c2=O)CC1", "note": "[Compound I-1448]", "IC50": 12},
      {"smiles": "CCn1c(=O)[nH]/c(=N\\c2ccc(Oc3ccc(N)nc3)cc2)n(Cc2ccc(Cl)cc2)c1=O", "note": "[Compound I-2214]", "IC50": 22},
      {"smiles": "CCn1c(=O)[nH]/c(=N\\c2ccc(OCCc3ccccn3)cc2)n(Cc2ccc(Cl)cc2)c1=O", "note": "[Compound I-2201]", "IC50": 92},
      {"smiles": "NC(=O)Cn1c(=O)[nH]/c(=N\\c2ccc(OCC3CC3)cc2)n(Cc2ccc(Cl)cc2)c1=O", "note": "[Compound I-1940]", "IC50": 55},
      {"smiles": "CCOC(=O)CCn1c(=O)[nH]/c(=N\\c2ccc(OC(C)C)c(COC)c2)n(Cc2ccc(C)cc2)c1=O", "note": "[Compound I-1421]", "IC50": 883},
      {"smiles": "Cc1cc(/N=c2\\[nH]c(=O)n(CC[C@H](NC(=O)OC(C)(C)C)C(=O)O)c(=O)n2Cc2ccc(Cl)cc2)ccc1OC(C)C", "note": "[Compound I-0732, (S)-1-(4-chlorobenzyl)-3-(3-t-butoxycarbonylamino-3-hydroxycarbonylpropyl)-6-(3-mehyl-4-isopropoxyphenylimino)-1,3,5-triazinane-2,4-dion]", "IC50": 41},
      {"smiles": "Cc1ccc(Cn2c(=O)n(CCC(=O)O)c(=O)[nH]/c2=N\\c2cccc(Cl)c2)cc1", "note": "[Compound I-2047]", "IC50": 384},
      {"smiles": "COc1cc(/N=c2\\[nH]c(=O)n([C@@H](C)[C@@H](C)C(=O)O)c(=O)n2Cc2ccc(C)cc2)ccc1CC(C)C", "note": "[Compound I-1367]", "IC50": 14},
      {"smiles": "CC(C)Oc1ccc(/N=c2\\[nH]c(=O)n(CCCS(=O)(=O)O)c(=O)n2Cc2ccc(Cl)cc2)cc1F", "note": "[Compound I-0645]", "IC50": 102},
      {"smiles": "CCn1c(=O)[nH]/c(=N\\c2ccc(Oc3cncc(C(=O)OC)c3)cc2)n(Cc2ccc(Cl)cn2)c1=O", "note": "[Compound I-2154]", "IC50": 133},
      {"smiles": "COC(=O)[C@@H](C)Cn1c(=O)[nH]/c(=N\\c2ccc(C)c(Cl)c2)n(Cc2ccc(Cl)cc2)c1=O", "note": "[Compound I-0691]", "IC50": 48},
      {"smiles": "CC(C)Oc1ccc(/N=c2\\[nH]c(OCC(=O)NC(CO)CO)nc(=O)n2Cc2ccc(Cl)cc2)cc1F", "note": "[Compound I-0584]", "IC50": 248}
    ]},
    {"target": "human P2X3 receptor (Homo sapiens (Human), UniProt P56373)", "assay": "Evaluation of human P2X3 receptor inhibitory activity (Fluo-3 calcium fluorescence, FDSS 3000, ATP stimulation);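 also: stimulus was 50 nM ATP with fluorescence followed for 3 min, and the response per well was peak post-ATP fluorescence divided by the reading at measurement start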", "assay_type": "cell-based", "settings": "C6BU-1 cells stably expressing human P2X3 receptor, Fluo-3 fluorescence, FDSS 3000", "units": {"IC50": "nM"}, "values": [
      {"smiles": "CCc1cc(/N=c2\\[nH]c(=O)n(C[C@H](C)C(=O)O)c(=O)n2Cc2ccc(C)cc2)ccc1OC(C)C", "note": "[Compound I-0911, (S)-1-(4-methylbenzyl)-6-(3-ethyl-4-isopropoxyphenylimino)-3-(2-hydroxycarbonylpropyl)-1,3,5-triazinane-2,4-dion]", "IC50": 15},
      {"smiles": "CC(C)c1nc2ccc(/N=c3\\[nH]c(=O)n([C@@H](C)[C@@H](C)C(=O)O)c(=O)n3Cc3ccc(Cl)cc3)cc2s1", "note": "[Compound I-1585]", "IC50": 14},
      {"smiles": "CCn1c(C)nc2cc(/N=c3\\[nH]c(=O)n([C@@H](C)[C@@H](C)C(=O)O)c(=O)n3Cc3ccc(Cl)cc3)ccc21", "note": "[Compound I-1583]", "IC50": 332},
      {"smiles": "CCc1ccc(Cn2c(=O)n(C[C@H](C)C(=O)O)c(=O)[nH]/c2=N\\c2ccc(OC(C)C)cc2)cc1", "note": "[Compound I-1140]", "IC50": 44},
      {"smiles": "COC(=O)[C@@H](C)Cn1c(=O)[nH]/c(=N\\c2ccc(Cl)c(Cl)c2)n(Cc2ccc(C)cc2)c1=O", "note": "[Compound I-0998]", "IC50": 24},
      {"smiles": "CCc1nc2ccc(/N=c3\\[nH]c(=O)n(CC(C)(C)C(=O)O)c(=O)n3Cc3ccc(C)cc3)cc2s1", "note": "[Compound I-1580]", "IC50": 6},
      {"smiles": "COC(=O)[C@@H](C)Cn1c(=O)[nH]/c(=N\\c2ccc(Cl)c(C(F)(F)F)c2)n(Cc2ccc(C)cc2)c1=O", "note": "[Compound I-1000]", "IC50": 116},
      {"smiles": "Cc1ccc(Cn2c(=O)n(CC(C)(C)C(=O)O)c(=O)[nH]/c2=N\\c2ccc3nc(C)sc3c2)cc1", "note": "[Compound I-1577]", "IC50": 7},
      {"smiles": "CCn1c(=O)[nH]/c(=N\\c2ccc(Oc3cccc(CC(=O)OC)c3)cc2)n(Cc2ccc(Cl)cc2)c1=O", "note": "[Compound I-1889]", "IC50": 23},
      {"smiles": "CCc1nc2ccc(/N=c3\\[nH]c(=O)n(CC(C)(C)C(=O)OC)c(=O)n3Cc3ccc(C)cc3)cc2s1", "note": "[Compound I-1573]", "IC50": 4},
      {"smiles": "CCOC(=O)CCn1c(=O)[nH]/c(=N\\c2ccc3nc(C4CC4)sc3c2)n(Cc2ccc(C)cc2)c1=O", "note": "[Compound I-1559]", "IC50": 5},
      {"smiles": "CCOc1ccc(/N=c2\\[nH]c(=O)n([C@@H](C)[C@@H](C)C(=O)O)c(=O)n2Cc2ccc(Cl)cc2)cc1Cl", "note": "[Compound I-0922]", "IC50": 29}
    ]},
    {"target": "human P2X3 receptor (Homo sapiens (Human), UniProt P56373)", "assay": "Evaluation of human P2X3 receptor inhibitory activity (Fluo-3 calcium fluorescence, FDSS 3000, ATP stimulation);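 also: stimulus was 50 nM ATP with fluorescence followed for 3 min, and the response per well was peak post-ATP fluorescence divided by the reading at measurement start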", "assay_type": "cell-based", "settings": "human P2X3 receptor, Test Example 1", "units": {"IC50": "nM"}, "values": [
      {"smiles": "CCn1c(=O)[nH]/c(=N\\c2ccc(Oc3ccnc(NCCO)c3)cc2)n(Cc2ccc(Cl)cc2)c1=O", "note": "[Compound I-2588]", "IC50": 11},
      {"smiles": "NC(=O)CCn1c(=O)[nH]/c(=N\\c2ccc(Oc3ncccn3)cc2)n(Cc2ccc(Cl)cc2)c1=O", "note": "[Compound I-2565]", "IC50": 17},
      {"smiles": "Cn1c(=O)[nH]/c(=N\\c2ccc(Oc3cc(C(=O)O)ncn3)cc2)n(Cc2ccc(Cl)cc2)c1=O", "note": "[Compound I-2447]", "IC50": 10},
      {"smiles": "CC[C@@H](C)Oc1ccc(/N=c2\\[nH]c(=O)n(C[C@H](C)C(=O)O)c(=O)n2Cc2ccc(C)cc2)cc1C", "note": "[Compound I-0853]", "IC50": 13},
      {"smiles": "O=c1[nH]/c(=N\\c2ccc(Oc3ccon3)cc2)n(Cc2ccc(Cl)cc2)c(=O)n1CCOCCO", "note": "[Compound I-2490]", "IC50": 10},
      {"smiles": "O=c1[nH]/c(=N\\c2ccc(Oc3cccc(F)n3)cc2)n(Cc2ccc(F)cc2)c(=O)n1CC(CO)CO", "note": "[Compound I-2583]", "IC50": 15},
      {"smiles": "CCn1c(=O)[nH]/c(=N\\c2ccc(Oc3cccc(C(=O)OC)n3)cc2)n(Cc2ccc(Cl)cn2)c1=O", "note": "[Compound I-2238]", "IC50": 148},
      {"smiles": "COCCn1c(=O)[nH]/c(=N\\c2ccc(Oc3ccnc(C(=O)O)c3)cc2)n(Cc2ccc(Cl)cc2)c1=O", "note": "[Compound I-2552]", "IC50": 5},
      {"smiles": "CCOc1ccc(/N=c2\\[nH]c(=O)n(CCCC(=O)O)c(=O)n2Cc2ccc(C)cc2)cc1Cl", "note": "[Compound I-0874]", "IC50": 86}
    ]}
  ]
}
